From patent publication US10647713B2 (Nimbus Lakshmi, Inc., priority 2016, dated 2020)

Biological target: human TYK2 (JH2domain-pseudokinase) (Homo sapiens (Human), UniProt P29597)
Assay: TYK2 JH2 Domain Binding Assay (KINOMEscan, DiscoveRx)
Conditions: 11-point dilution, duplicate
Method in brief: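 Kd from duplicate 11-point 3-fold dilutions starting at 30,000 nM, fitted by Hill equation with slope fixed at −1. Compounds (final 0.9% DMSO) displace DNA-tagged HEK293-expressed TYK2 JH2 fusion (<0.1 nM) from ligand-coated beads over 1 h at room temperature; eluted kinase read by qPCR.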

Chain of human TYK2 (JH2domain-pseudokinase) (P29597 556-888): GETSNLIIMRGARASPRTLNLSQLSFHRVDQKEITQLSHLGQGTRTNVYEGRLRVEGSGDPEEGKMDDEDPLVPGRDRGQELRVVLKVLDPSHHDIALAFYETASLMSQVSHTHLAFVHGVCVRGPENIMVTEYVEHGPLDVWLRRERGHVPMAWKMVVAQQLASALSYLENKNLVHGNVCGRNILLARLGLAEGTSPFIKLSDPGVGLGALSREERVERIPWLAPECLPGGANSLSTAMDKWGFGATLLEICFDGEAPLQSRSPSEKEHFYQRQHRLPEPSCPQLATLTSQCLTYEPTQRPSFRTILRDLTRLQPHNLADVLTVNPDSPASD

In the case of `COc1c(Nc2cc(NC(=O)[C@H]3C[C@H]3F)nc3[nH]c(C(F)F)nc23)cccc1-c1ncn(C)n1` [I-440, (1R,2R)—N-(2-(difluoromethyl)-7-((2-methoxy-3-(1-methyl-1H-1,2,4-triazol-3-yl)phenyl)amino)-3H-imidazo[4,5-b]pyridin-5-yl)-2-fluorocyclopropane-1-carboxamide], the Kd is reported as 0.1 to 0.5 nM.
`Cc1nc2c(Nc3ccccc3[S@+](C)[O-])cc(NC(=O)C3CC3)nc2[nH]1` [I-441, (S)—N-(2-methyl-7-((2-(methylsulfinyl)phenyl)amino)-3H-imidazo[4,5-b]pyridin-5-yl)cyclopropanecarboxamide] was tested, and the Kd was 1 to 10 nM.
`Cc1nc2c(Nc3ccccc3[S@@+](C)[O-])cc(NC(=O)C3CC3)nc2[nH]1` [I-442, (R)—N-(2-methyl-7-((2-(methylsulfinyl)phenyl)amino)-3H-imidazo[4,5-b]pyridin-5-yl)cyclopropanecarboxamide] gave a Kd of over 10 nM.
In the case of `Cc1nc2c(Nc3ccc(F)cc3S(C)(=O)=O)cc(NC(=O)C3CC3)nc2[nH]1` [I-443, N-(7-((4-fluoro-2-(methylsulfonyl)phenyl)amino)-2-methyl-3H-imidazo[4,5-b]pyridin-5-yl)cyclopropanecarboxamide], the Kd is reported as 0.1 to 0.5 nM.
Work on `CP(C)(=O)c1cc(C2CCC2)ccc1Nc1cc(NC(=O)C2CC2)nc2[nH]c(C(F)F)nc12` [I-444, N-(7-((4-cyclobutyl-2-(dimethylphosphoryl)phenyl)amino)-2-(difluoromethyl)-3H-imidazo[4,5-b]pyridin-5-yl)cyclopropane carboxamide] yielded a Kd of 0.1 to 0.5 nM.
For `Cc1nc2c(Nc3ccc(C4CCC4)cc3P(C)(C)=O)cc(NC(=O)C3CC3)nc2[nH]1` [I-445, N-(7-((4-cyclobutyl-2-(dimethylphosphoryl)phenyl)amino)-2-methyl-3H-imidazo[4,5-b]pyridin-5-yl)cyclopropanecarboxamide], the Kd was 0.1 to 0.5 nM.
For `Cc1nn(C)c(C)c1-c1ccc(Nc2cc(NC(=O)C3CC3)nc3[nH]c(C(F)F)nc23)c(S(C)(=O)=O)c1` [I-446, N-(2-(difluoromethyl)-7-((2-(methylsulfonyl)-4-(1,3,5-trimethyl-1H-pyrazol-4-yl)phenyl)amino)-3H-imidazo[4,5-b]pyridin-5-yl)cyclopropanecarboxamide], the Kd was 0.1 to 0.5 nM.
Compound `Cc1nc2c(Nc3ccc(-c4c(C)nn(C)c4C)cc3S(C)(=O)=O)cc(NC(=O)C3CC3)nc2[nH]1` [I-447, N-(2-methyl-7-((2-(methylsulfonyl)-4-(1,3,5-trimethyl-1H-pyrazol-4-yl)phenyl)amino)-3H-imidazo[4,5-b]pyridin-5-yl)cyclopropanecarboxamide] has a Kd of 0.1 to 0.5 nM.
Compound `[2H]C([2H])([2H])S(=O)(=O)N(C)c1ccccc1Nc1cc(Nc2cc(C)nc(C)n2)nc2[nH]c(C(F)F)nc12` [I-448, N-(2-((2-(difluoromethyl)-5-((2,6-dimethylpyrimidin-4-yl)amino)-3H-imidazo[4,5-b]pyridin-7-yl)amino)phenyl)-N-methylmethanesulfonamide-d3] has a Kd of 0.1 to 0.5 nM.
`Cc1nc2c(Nc3ccc(-c4nn(C)cc4C)cc3S(C)(=O)=O)cc(Nc3cnc(C)c(C)n3)nc2[nH]1` [I-449, N7-(4-(1,4-dimethyl-1H-pyrazol-3-yl)-2-(methylsulfonyl)phenyl)-N5-(5,6-dimethylpyrazin-2-yl)-2-methyl-3H-imidazo[4,5-b]pyridine-5,7-diamine] gave a Kd of 0.1 to 0.5 nM.
Work on `Cc1cn(C)c(-c2ccc(Nc3cc(NC(=O)C4CC4)nc4[nH]c(C(F)F)nc34)c(S(C)(=O)=O)c2)n1` [I-450, N-(2-(difluoromethyl)-7-((4-(1,4-dimethyl-1H-imidazol-2-yl)-2-(methylsulfonyl)phenyl)amino)-3H-imidazo[4,5-b]pyridin-5-yl)cyclopropanecarboxamide] yielded a Kd of 0.1 to 0.5 nM.
With `Cc1cnc(-c2ccc(Nc3cc(NC(=O)C4CC4)nc4[nH]c(C(F)F)nc34)c(S(C)(=O)=O)c2)n1C` [I-451, N-(2-(difluoromethyl)-7-((4-(1,5-dimethyl-1H-imidazol-2-yl)-2-(methylsulfonyl)phenyl)amino)-3H-imidazo[4,5-b]pyridin-5-yl)cyclopropaneCarboxamide] the Kd was 0.1 to 0.5 nM.
